Assay results taken from patent US20100095396A1, “METHOD FOR INCREASING THE DRY BIOMASS OF PLANTS” (priority 2006, published 2010).

Key:
Corn = assay: Increase of the dry biomass of corn plants after seed treatment; assay type: in vivo; details: harvested 37 days after emergence, dried at 110° C., free disease conditions
Excerpt: (§1) Treatment with fipronil or fipronil+alpha-cypermethrin under free disease conditions
(§2) Corn was cultivated under customary conditions at Campinas (Brazil) in 2005/2006. A part of the seeds of the test plants had beforehand been treated with fipronil. Another part of the seeds of the plants had beforehand been treated with a mixture of fipronil and alpha-cypermethrin. 37 days after the emergence of the plants, the plants and their roots were harvested. The leaves and the roots were completely dried in an oven at 110° C. and then weighed.

Soybean = assay: Increase of the dry biomass of soybean plants after seed treatment; assay type: in vivo; details: harvested 35 days after emergence, dried at 110° C., free disease conditions
Excerpt: as §1
as §2, with “Soybean” for “Corn”, “35” for “37”

Compound: N#Cc1nn(-c2c(Cl)cc(C(F)(F)F)cc2Cl)c(N)c1[S+]([O-])C(F)(F)F (stereo not drawn) [Fipronil, 5-amino-1-(2,6-dichloro-α,α,α-trifluoro-p-tolyl)-4-trifluoromethylsulfinylpyrazole-3-carbonitrile]
- Dry weight leaves (Corn): 23.38
- Dry weight roots (Corn): 41.27
- Dry weight leaves (Soybean): 13.15
- Dry weight roots (Soybean): 15.6
